Reference: publication PMC4079120 (Journal of the American Chemical Society, 2013)

system: GABA-A receptor; assay: block of evoked GABA-A receptor currents in layer […] pyramidal neurons

Molecule | EC50
COc1ccc([N+](=O)[O-])c2c1CCN2C(=O)CC[C@H](N)C(=O)O [MNI-Glu] | 105 µM
DEAC450-Glu [compound 7] | ~33 µM
RuBi-Glu | 7.7 µM
